Patent US20080026456A1, “Method and apparatus for reducing pathogens in a biological sample” (priority 2002, published 2008)

Key:
[1] = system: cultured cells and embryos; set-up: dose or concentration left out as unconfirmed; settings: 37° C.; cited from earlier work
[2] = system: Brucella abortus Strain 19; format: cell-based
[3] = system: Campylobacter fetus isolate [4914]; format: cell-based
[4] = system: Mycoplasma species; settings: without detrimentally affecting embryonic development in vitro; cited from earlier work
[5] = system: fresh semen of domestic bulls (Bos taurus) and gaur (Bos gaur) bulls; experiment: Sperm survival after Percoll column with trypsin, fresh bull and gaur semen; format: cell-based; settings: 0.125% trypsin in 45% Percoll column
[6] = system: confluent buffalo rat liver cell monolayers; experiment: Trypsin activity after dilution: detachment of confluent somatic cell monolayers; format: cell-based; settings: final concentrations 0.125% and […]
[7] = system: bovine sperm; experiment: Sperm viability with trypsin in density gradient (later studies)

Molecule: NC[C@H]1O[C@H](O[C@H]2[C@H](O)[C@@H](O[C@H]3O[C@H](CO)[C@@H](O)[C@H](N)[C@H]3O)[C@H](N)C[C@@H]2N)[C@H](O)[C@@H](O)[C@@H]1O [kanamycin]
- toxicity to cultured cells and embryos [1]: very little toxicity

Molecule: CCC[C@@H]1C[C@@H](C(=O)N[C@@H]([C@H]2O[C@H](SC)[C@H](O)[C@@H](O)[C@H]2O)[C@@H](C)O)N(C)C1 [lincomycin]
- sensitivity of isolate to antibiotic [2]: resistant
- sensitivity of isolate to antibiotic [3]: sensitive

Molecule: CN[C@@H]1[C@H](O)[C@H](NC)[C@H]2O[C@@]3(O)C(=O)C[C@@H](C)O[C@H]3O[C@@H]2[C@H]1O [spectinomycin]
- sensitivity of isolate to antibiotic [2]: sensitive
- sensitivity of isolate to antibiotic [3]: intermediate

Molecule: CC[C@H]1OC(=O)C[C@@H](O)[C@H](C)[C@@H](O[C@@H]2O[C@H](C)[C@@H](O[C@H]3C[C@@](C)(O)[C@@H](O)[C@H](C)O3)[C@H](N(C)C)[C@H]2O)[C@@H](CC=O)C[C@@H](C)C(=O)/C=C/C(C)=C/[C@@H]1CO[C@@H]1O[C@H](C)[C@@H](O)[C@@H](OC)[C@H]1OC [tylosin]
- sensitivity of isolate to antibiotic [2]: intermediate
- sensitivity of isolate to antibiotic [3]: intermediate
- minimal concentration for eliminating Mycoplasma species from bovine embryos [4]: 200 µg/mL

Molecule: gentamicin
- sensitivity of isolate to antibiotic [2]: sensitive
- sensitivity of isolate to antibiotic [3]: sensitive

Molecule: trypsin
- effect on sperm motility, viability, acrosomal integrity [5]: no detrimental affects
- enzymatic activity after dilution with Percoll, Isolate or egg yolk-based cryodiluents [6]: did not diminish enzymatic activity
- effect of increasing trypsin concentration on sperm [7]: no detrimental effects
